Experimental findings from ChEMBL document CHEMBL4261614, “Discovery of traditional Chinese medicine monomers and their synthetic intermediates, analogs or derivatives for battling P-gp-mediated multi-drug resistance” (Eur J Med Chem, 2018) are described below.

SMILES strings stand for the structures.

The species named for one data set is Homo sapiens. Put plainly: Inhibition of P-gp in human KBv200 cells assessed as potentiation of vincristine-induced cytotoxicity by measuring reduction in vincristine IC50 at 25 uM after 96 hrs by […] relative to vincristine alone. The format is cell-based. A general note: Immunoblotting shows a protein as a band on a membrane.
Data set [1] deals with ATP-dependent translocase ABCB1 (Homo sapiens, UniProt P08183). Put plainly: Inhibition of MDR1 (unknown origin) expressed in MDCK-MDR1 cells assessed as increase in Rh123 accumulation at 100 uM after 30 mins by spectrofluorometric analysis relative to control. It is filed as cell-based. The note with it: mdck-mdr1, 0.5 h.
ATP-dependent translocase ABCB1, sequence (P08183 whole entry): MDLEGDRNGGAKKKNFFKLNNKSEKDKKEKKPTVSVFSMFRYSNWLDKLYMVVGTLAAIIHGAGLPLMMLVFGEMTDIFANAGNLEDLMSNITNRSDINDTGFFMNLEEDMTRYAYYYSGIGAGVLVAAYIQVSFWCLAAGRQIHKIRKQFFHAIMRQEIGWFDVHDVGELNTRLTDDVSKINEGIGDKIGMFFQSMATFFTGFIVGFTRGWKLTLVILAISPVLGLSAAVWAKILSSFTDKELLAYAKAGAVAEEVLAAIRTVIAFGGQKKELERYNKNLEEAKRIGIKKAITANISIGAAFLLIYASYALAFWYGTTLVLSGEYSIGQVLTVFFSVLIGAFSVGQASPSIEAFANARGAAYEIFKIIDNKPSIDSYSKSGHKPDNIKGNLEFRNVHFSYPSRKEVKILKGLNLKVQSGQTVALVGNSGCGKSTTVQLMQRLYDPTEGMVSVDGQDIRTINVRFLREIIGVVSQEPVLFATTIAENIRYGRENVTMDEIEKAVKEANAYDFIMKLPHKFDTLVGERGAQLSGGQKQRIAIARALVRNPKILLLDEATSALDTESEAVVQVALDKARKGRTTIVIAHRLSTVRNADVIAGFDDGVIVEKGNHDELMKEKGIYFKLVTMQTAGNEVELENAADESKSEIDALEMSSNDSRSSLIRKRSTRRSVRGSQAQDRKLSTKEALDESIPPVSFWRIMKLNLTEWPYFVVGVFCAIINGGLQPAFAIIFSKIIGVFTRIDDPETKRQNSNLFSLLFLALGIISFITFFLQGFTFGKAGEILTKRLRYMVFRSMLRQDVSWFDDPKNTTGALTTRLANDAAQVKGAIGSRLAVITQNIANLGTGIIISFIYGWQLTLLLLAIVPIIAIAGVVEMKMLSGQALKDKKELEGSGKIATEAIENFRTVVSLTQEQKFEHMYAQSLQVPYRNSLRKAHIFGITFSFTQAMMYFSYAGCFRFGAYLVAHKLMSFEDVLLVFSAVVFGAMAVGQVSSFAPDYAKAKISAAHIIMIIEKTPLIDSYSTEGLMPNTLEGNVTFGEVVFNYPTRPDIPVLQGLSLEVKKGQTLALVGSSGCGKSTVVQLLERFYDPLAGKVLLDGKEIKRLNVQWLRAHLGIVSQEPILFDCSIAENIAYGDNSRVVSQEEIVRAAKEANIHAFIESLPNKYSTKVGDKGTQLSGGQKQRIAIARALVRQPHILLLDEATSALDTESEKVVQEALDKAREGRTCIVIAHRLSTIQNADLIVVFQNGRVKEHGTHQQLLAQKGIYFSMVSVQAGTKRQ

On to `COc1cc2c(c(OC)c1OC)-c1c(cc3c(c1OC)OCO3)CC(C)C(C)C2` (centres undefined), for which, in the data set listed under Homo sapiens, the Ratio IC50 is 23.5. In the case of `COc1cc2c(c(OC)c1OC)-c1c(cc(OC)c(OC)c1OC)C[C@H](C)[C@H](C)C2`, the Ratio IC50 in the data set listed under Homo sapiens was found to be 309. Turning to `CC(C)C(=O)OC(C)(C)[C@@H]1Cc2c(ccc3ccc(=O)oc23)O1`, the “fold change (FC)” value in data set [1] was found to be 9. `COc1cc2c(c(OC)c1OC)-c1c(cc(OC)c(OC)c1OC)C[C@](C)(O)[C@@H](C)C2`: in the data set filed under Homo sapiens, the Ratio IC50 came out at 3.8.
